Results: patent publication US7358235B2, “Analogs of nitrobenzylthioinosine” (Gruenenthal GmbH, priority 2002, dated 2008)
Entries after “also recorded” stand apart in the source; their conditions may differ. Read-outs that look alike come from different tables or passages of the source. Marks after values point to notes of the source that are not given here.

Assays:
[1] = biological target: T1, nucleoside transport protein (Homo sapiens, UniProt Q99808); experiment: [3H]NBTI radioligand binding assay on human erythrocyte membranes; conditions: for affinity / activity in words: comparison within the series, [3H]NBTI binding
T1 construct: tissue Blood Bank, Leiden University Medical Center; host or cells: human erythrocyte membranes (ghosts) from whole human blood
T1 sequence (Q99808 1-456): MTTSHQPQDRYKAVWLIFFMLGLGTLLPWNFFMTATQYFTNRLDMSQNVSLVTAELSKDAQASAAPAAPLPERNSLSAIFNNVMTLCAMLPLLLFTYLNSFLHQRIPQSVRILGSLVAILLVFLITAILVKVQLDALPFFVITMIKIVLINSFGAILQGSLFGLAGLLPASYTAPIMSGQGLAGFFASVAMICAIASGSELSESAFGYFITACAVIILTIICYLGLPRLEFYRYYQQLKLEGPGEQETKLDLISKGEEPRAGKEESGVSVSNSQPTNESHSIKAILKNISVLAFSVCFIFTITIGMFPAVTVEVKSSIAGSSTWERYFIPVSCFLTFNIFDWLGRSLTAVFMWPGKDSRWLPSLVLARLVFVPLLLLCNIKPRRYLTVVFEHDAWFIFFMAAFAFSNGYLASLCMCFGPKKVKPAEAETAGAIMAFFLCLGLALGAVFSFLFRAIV
Protocol: All final products were tested in a radioligand binding assay.
Erythrocytes and membrane preparation. Whole human blood (Blood Bank, Leiden University Medical Center) was stirred in lysis buffer (½ v/v, 10 mM MgCl2 in 10 mM Tris HCl, pH 8.0 at 25° C.) for 1 h. After homogenization it was centrifuged for 50 min at 19,000 rpm. The supernatant was removed and the pellet was dissolved in ice-cold water and centrifuged again for 50 min. This procedure was repeated two more times. After removal of the last supernatant 25 mL of buffer (50 mM Tris HCl, pH 7.4 at 25° C.) was added to the final pink pellet. This suspension was homogenized and the ghosts were collected. Aliquots were stored at −80° C. until further use.
Saturation and displacement equilibrium NBTI binding to membranes prepared from human erythrocytes (ghosts) was determined at 25° C. based on a method previously described.

[2] = inhibition of equilibrium binding of [3H]NBTI, Table 1, read-out: Ki(nM), affinity for the nucleoside transport protein on human erythrocyte membranes
[3] = human erythrocyte membranes, [3H]NBTI 1.5 nM, 30 minutes at 25° C., Tris.HCl pH 7.4, read-out: Binding (Nucleoside Transporter (Ki))

Structure (SMILES) | Ki [1, 2] | Ki [1, 3] | affinity / activity in words [1] | also measured
OC[C@H]1O[C@@H](n2cnc3c(SCc4cc(Cl)cc5nonc45)ncnc32)[C@H](O)[C@@H]1O [Compound 16] | 25 nM | – | – | –
OCC1OC(n2cnc3c(SCc4ccc5nsc(Br)c5c4)ncnc32)C(O)C1O (stereo not drawn) [Example 2, 2-[6-(3-Bromo-benzo[c]isothiazol-5-ylmethylsulfanyl)-purin-9-yl]-5-hydroxymethyl-tetrahydro-furan-3,4-diol] | 42 nM | – | – | –
OCC1OC(n2cnc3c(SCc4ccc5nonc5c4)ncnc32)C(O)C1O (stereo not drawn) [Example 3, 2-[6-(Benzo[1,2,5]oxadiazol-5-ylmethylsulfanyl)-purin-9-yl]-5-hydroxymethyl-tetrahydro-furan-3,4-diol] | 1.5 nM | – | – | –
OCC1OC(n2cnc3c(SCc4cccc5nonc45)ncnc32)C(O)C1O (stereo not drawn) [Example 4] | 9.7 nM | – | – | –
OCC1OC(n2cnc3c(SCc4cccc5conc45)ncnc32)C(O)C1O (stereo not drawn) [Example 7, 2-[6-(Benzo[c]isoxazol-7-ylmethylsulfanyl)-purin-9-yl]-5-hydroxy methyl-tetrahydro-furan-3,4-diol] | 666 nM | – | – | –
OCC1OC(n2cnc3c(SCc4ccc5nsc(Br)c5c4)ncnc32)C(O)C1O (stereo not drawn) [Example 10, 2-[6-(3-Bromo-benzo[c]isothiazol-5-ylmethylsulfanyl)-purin-9-yl]-5-hydroxymethyl-tetra hydro-furan-3,4-diol] | – | 42 nM | – | –
OCC1OC(n2cnc3c(SCc4ccc5nc[nH]c5c4)ncnc32)C(O)C1O (stereo not drawn) [Example 11, 2-[6-(3H-Benzoimidazol-5-ylmethylsulfanyl)-purin-9-yl]-5-hydroxymethyl-tetra hydro-furan-3,4-diol] | 191 nM | 191 nM | – | –
OCC1OC(n2cnc3c(SCc4cccc5nc[nH]c45)ncnc32)C(O)C1O (stereo not drawn) [Example 12, 2-[6-(3H-Benzoimidazol-4-ylmethylsulfanyl)-purin-9-yl]-5-hydroxymethyl-tetrahydro-furan-3,4-diol] | – | – | – | Percentage of displacement at concentration of 10 μM ([1]; 10 μM, [3H]NBTI, human erythrocyte membranes): 42%*; Binding (Nucleoside Transporter), percentage at 10 μM ([1]; 10 μM, human erythrocyte membranes, [3H]NBTI): 42%
O=[N+]([O-])c1ccc(CSc2ncnc3c2ncn3C2CCCO2)cc1 (stereo not drawn) [Example 14, 6-(4-Nitro-benzylsulfanyl)-9-(tetrahydro-furan-2-yl)-9H-purine] | 937 nM | 937 nM | – | –
O=[N+]([O-])c1ccc(CSc2ncnc3c2ncn3C2CCCCO2)cc1 (stereo not drawn) [Example 15, 6-(4-Nitro-benzylsulfanyl)-9-(tetrahydro-pyran-2-yl)-9H-purine] | 1200 nM | 1200 nM | – | –
O=[N+]([O-])c1ccc(CSc2ncnc3c2ncn3CCCCOC2CCCCO2)cc1 (stereo not drawn) [Example 16, 6-(4-Nitro-benzylsulfanyl)-9-[4-(tetrahydro-pyran-2-yloxy)-butyl]-9H-purine] | 488 nM | 488 nM | did not improve the binding affinity | –
O=[N+]([O-])c1ccc(CSc2ncnc3c2ncn3CCCCO)cc1 [Example 17, 4-[6-(4-Nitro-benzylsulfanyl)-purin-9-yl]-butan-1-ol] | 1140 nM | 1140 nM | – | –
O=[N+]([O-])c1ccc(CSc2ncnc3c2ncn3C2CCCC2)cc1 [Example 18, 9-Cyclopentyl-6-(4-nitro-benzylsulfanyl)-9H-purine] | 736 nM | 736 nM | – | –
CCCCn1cnc2c(SCc3ccc([N+](=O)[O-])cc3)ncnc21 [Example 19, 9-Butyl-6-(4-nitro-benzylsulfanyl)-9H-purine] | 238 nM | 238 nM | – | –
CCCCn1cnc2c(SCc3cccc4nonc34)ncnc21 [Example 20, 6-(Benzo[1,2,5]oxadiazol-4-ylmethylsulfanyl)-9-butyl-9H-purine] | 5600 nM | 5600 nM | – | –
CCCCn1cnc2c(SCc3ccc4nscc4c3)ncnc21 [Example 21, 6-(Benzo[c]isothiazol-5-ylmethylsulfanyl)-9-butyl-9H-purine] | 3100 nM | 3100 nM | – | –
CCCCn1cnc2c(SCc3ccc4nsc(Br)c4c3)ncnc21 [Example 22, 6-(3-Bromo-benzo[c]isothiazol-5-ylmethylsulfanyl)-9-butyl-9H-purine] | 682 nM | 682 nM | – | –
OCC1OC(n2cnc3c(SCc4ccccc4)cc(Cl)nc32)C(O)C1O (stereo not drawn) [Example 23, 2-(7-Benzylsulfanyl-5-chloro-imidazo[4,5-b]pyridin-3-yl)-5-hydroxymethyl-tetrahydro-furan-3,4-diol] | 670 nM | 670 nM | decrease in affinity | –
O=[N+]([O-])c1ccc(CSc2cc(Cl)nc3c2ncn3C2OC(CO)C(O)C2O)cc1 (stereo not drawn) [Example 24, 2-[5-Chloro-7-(4-nitro-benzylsulfanyl)-imidazo[4,5-b]pyridin-3-yl]-5-hydroxymethyl-tetrahydro-furan-3,4-diol] | 47 nM | 47 nM | decrease in affinity | increase of affinity relative to 60 ([1]; introduction of a nitro group): approx. tenfold
O=[N+]([O-])c1ccc(CSc2ncnc3c2ncn3CCCO)cc1 [Example 25, 3-[6-(4-Nitro-benzylsulfanyl)-purin-9-yl]-propan-1-ol] | – | 130 nM | – | –
O=[N+]([O-])c1ccc(CSc2ncnc3c2ncn3Cc2ccccc2)cc1 [Example 26, 9-Benzyl-6-(4-nitro-benzylsulfanyl)-9H-purine] | – | 135 nM | – | melting point: 139 °C
OCC1OC(n2cnc3c(SCCc4ccccc4)ncnc32)C(O)C1O (stereo not drawn) [Example 27, 2-Hydroxymethyl-5-(6-phenethylsulfanyl-purin-9-yl)-tetrahydro-furan-3,4-diol] | – | 12 nM | – | –
OCC1OC(n2cnc3c(SCc4ccc5nsc(Br)c5c4)ncnc32)C(O)C1O (stereo not drawn) [Example 31] | – | – | – | affinity gain ([1]; bromination of 28 to yield 31): 2.6 fold; Ki ([1]; human erythrocyte membranes, [3H]NBTI, read-out: Ki): 42 nM
OCC1OC(n2cnc3c(SCc4ccc5nc[nH]c5c4)ncnc32)C(O)C1O (stereo not drawn) [Example 37] | – | – | negative effect on affinity | –
OCC1OC(n2cnc3c(SCc4cccc5nc[nH]c45)ncnc32)C(O)C1O (stereo not drawn) [Example 38] | – | – | negative effect on affinity; also recorded: reduced affinity when compared to their counterparts | –
O=[N+]([O-])c1ccc(CSc2ncnc3c2ncn3C2CCCO2)cc1 (stereo not drawn) [Example 43] | – | – | decrease in activity compared to compound 53 | –
O=[N+]([O-])c1ccc(CSc2ncnc3c2ncn3C2CCCCO2)cc1 (stereo not drawn) [Example 44] | – | – | decrease in activity compared to compound 53 | –
O=[N+]([O-])c1ccc(CSc2ncnc3c2ncn3CCCCOC2CCCCO2)cc1 (stereo not drawn) [Example 46] | – | – | higher affinity | –
O=[N+]([O-])c1ccc(CSc2ncnc3c2ncn3C2CCCC2)cc1 [Example 48] | – | – | decrease in activity compared to a simple n-butyl substituent | –
